Measurements taken from PubChem BioAssay AID1259407 (Chemical Carcinogenesis Research Information System (CCRIS), 2018).
Active and inactive are the calls of the source. No rule for the calls is given here.

Test system: CCRIS mutagenicity, Ames/micronucleus/aberration tests
Test: CCRIS mutagenicity studies
[1] = Test System: AMES SALMONELLA TYPHIMURIUM, Strain/Indicator: TA100, Metabolic Activation: NONE, Method: PREINCUBATION

Measured: mutagenic call

c1cc2c3c(c4c(ccc5ccccc54)cc3c1)[C@H]1O[C@@H]21
active: Test System: AMES SALMONELLA TYPHIMURIUM, Strain/Indicator: TA98, Metabolic Activation: NONE, Method: PREINCUBATION active; positive | Test System: AMES SALMONELLA TYPHIMURIUM, Strain/Indicator: TA98, Metabolic Activation: NONE, Method: STANDARD PLATE active; positive | Test System: AMES SALMONELLA TYPHIMURIUM, Strain/Indicator: TA98, Metabolic Activation: RAT, LIVER, S-9, AROCLOR 1254, Method: STANDARD PLATE active; positive | Test System: CHINESE HAMSTER OVARY, Strain/Indicator: V-79/6-THIOGUANINE, Metabolic Activation: NONE, Method: FLASK ASSAY active; positive

c1ccc2c(CCC3CO3)cccc2c1 (centres undefined)
active: [1] active; positive | Test System: AMES SALMONELLA TYPHIMURIUM, Strain/Indicator: TA100, Metabolic Activation: NONE, Method: STANDARD PLATE active; positive | Test System: AMES SALMONELLA TYPHIMURIUM, Strain/Indicator: TA1535, Metabolic Activation: NONE, Method: PREINCUBATION active; positive | Test System: AMES SALMONELLA TYPHIMURIUM, Strain/Indicator: TA1535, Metabolic Activation: NONE, Method: STANDARD PLATE active; positive

O=C1OC(CN2CCOCC2)CN1/N=C/c1ccc([N+](=O)[O-])o1 (centres undefined)
active: Test System: E. COLI, Strain/Indicator: WP2, Metabolic Activation: NONE, Method: SPOT active; positive | Test System: E. COLI, Strain/Indicator: WP2 UVRA, Metabolic Activation: NONE, Method: SPOT active; positive | Test System: E. COLI, Strain/Indicator: WP2 UVRA, Metabolic Activation: NONE, Method: STANDARD PLATE active; positive

CC(O)CN(CC(O)CO)N=O (centres undefined)
active: Test System: AMES SALMONELLA TYPHIMURIUM, Strain/Indicator: TA100, Metabolic Activation: HAMSTER, LIVER, S-9, PHENOBARBITAL, Method: PREINCUBATION active; positive | Test System: AMES SALMONELLA TYPHIMURIUM, Strain/Indicator: TA100, Metabolic Activation: MOUSE, LIVER, S-9, PHENOBARBITAL, Method: PREINCUBATION active; positive | Test System: AMES SALMONELLA TYPHIMURIUM, Strain/Indicator: TA100, Method: PREINCUBATION active; positive
inactive: Test System: AMES SALMONELLA TYPHIMURIUM, Strain/Indicator: TA100, Metabolic Activation: HAMSTER, LIVER, S-9, 3-METHYLCHOLANTHRENE, Method: PREINCUBATION inactive; negative | Test System: AMES SALMONELLA TYPHIMURIUM, Strain/Indicator: TA100, Metabolic Activation: HAMSTER, LIVER, S-9, Method: PREINCUBATION inactive; negative | Test System: AMES SALMONELLA TYPHIMURIUM, Strain/Indicator: TA100, Metabolic Activation: MOUSE, LIVER, S-9, 3-METHYLCHOLANTHRENE, Method: PREINCUBATION inactive; negative | Test System: AMES SALMONELLA TYPHIMURIUM, Strain/Indicator: TA100, Metabolic Activation: MOUSE, LIVER, S-9, Method: PREINCUBATION inactive; negative | [1] inactive; negative

Cc1cc(S(=O)(=O)O)c2c(C)ccc(C(C)C)cc1-2
inactive: Test System: AMES SALMONELLA TYPHIMURIUM, Strain/Indicator: TA98, Metabolic Activation: NONE inactive; negative | Test System: AMES SALMONELLA TYPHIMURIUM, Strain/Indicator: TA98, Metabolic Activation: S-9 inactive; negative | Test System: AMES SALMONELLA TYPHIMURIUM, Strain/Indicator: TA100, Metabolic Activation: NONE inactive; negative | Test System: AMES SALMONELLA TYPHIMURIUM, Strain/Indicator: TA100, Metabolic Activation: S-9 inactive; negative | Test System: AMES SALMONELLA TYPHIMURIUM, Strain/Indicator: TA1535, Metabolic Activation: NONE inactive; negative | Test System: AMES SALMONELLA TYPHIMURIUM, Strain/Indicator: TA1535, Metabolic Activation: S-9 inactive; negative | Test System: AMES SALMONELLA TYPHIMURIUM, Strain/Indicator: TA1537, Metabolic Activation: NONE inactive; negative | Test System: AMES SALMONELLA TYPHIMURIUM, Strain/Indicator: TA1537, Metabolic Activation: S-9 inactive; negative | Test System: E. COLI, Strain/Indicator: WP2 UVRA, Metabolic Activation: NONE inactive; negative | Test System: E. COLI, Strain/Indicator: WP2 UVRA, Metabolic Activation: S-9 inactive; negative

Nc1c(N=Nc2ccc(S(=O)(=O)CCOS(=O)(=O)O)cc2)c(S(=O)(=O)O)cc2cc(S(=O)(=O)O)c(N=Nc3ccc(S(=O)(=O)CCOS(=O)(=O)O)cc3)c(O)c12
inactive: Test System: Ames Salmonella typhimurium, Strain/Indicator: TA98, Metabolic Activation: None, Method: Preincubation inactive; negative | Test System: Ames Salmonella typhimurium, Strain/Indicator: TA98, Metabolic Activation: Rat, Liver, S-9, Aroclor 1254, Method: Preincubation inactive; negative | Test System: Ames Salmonella typhimurium, Strain/Indicator: TA100, Metabolic Activation: None, Method: Preincubation inactive; negative | Test System: Ames Salmonella typhimurium, Strain/Indicator: TA100, Metabolic Activation: Rat, Liver, S-9, Aroclor 1254, Method: Preincubation inactive; negative | Test System: Ames Salmonella typhimurium, Strain/Indicator: TA102, Metabolic Activation: None, Method: Preincubation inactive; negative | Test System: Ames Salmonella typhimurium, Strain/Indicator: TA102, Metabolic Activation: Rat, Liver, S-9, Aroclor 1254, Method: Preincubation inactive; negative | Test System: Ames Salmonella typhimurium, Strain/Indicator: TA1535, Metabolic Activation: None, Method: Preincubation inactive; negative | Test System: Ames Salmonella typhimurium, Strain/Indicator: TA1535, Metabolic Activation: Rat, Liver, S-9, Aroclor 1254, Method: Preincubation inactive; negative

NCCc1cc(O)c(O)cc1O
active: Test System: AMES SALMONELLA TYPHIMURIUM, Strain/Indicator: TA102, Metabolic Activation: NONE, Method: STANDARD PLATE active; positive | Test System: AMES SALMONELLA TYPHIMURIUM, Strain/Indicator: TA104, Metabolic Activation: NONE, Method: STANDARD PLATE active; positive
